The assay deals with BDF1 mice, colon carcinoma 38 sc, T/C %. Nature of the assay: NCI In Vivo Anticancer Drug Screen. Data for tumor model Colon Carcinoma 38 (subcutaneous) in B6D2F1 (BDF1) mice. Conditions: endpoint: median tumor weight (est.), higher = larger tumour. The method, boiled down: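 Compound antitumor activity was assessed in mice carrying transplantable tumors. Survival or tumor size was recorded, and each value is the treated-group measurement divided by that of the vehicle-treated control group.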

Where [1] appears, read: dose: 1.0 mg/kg/injection, schedule: Q07DX002 (ip), vehicle: Klucel (hydroxypropylcellulose) (HPC).
Where [2] appears, read: dose: 4.0 mg/kg/injection, schedule: Q07DX002 (ip), vehicle: Klucel (hydroxypropylcellulose) (HPC).
The mark [3] stands for this setting: dose: 8.0 mg/kg/injection, schedule: Q07DX002 (ip), vehicle: Klucel (hydroxypropylcellulose) (HPC).
[4] abbreviates: dose: 50.0 mg/kg/injection, schedule: Q07DX002 (ip), vehicle: saline with Tween-80.
Where [5] appears, read: dose: 100.0 mg/kg/injection, schedule: Q07DX002 (ip), vehicle: saline with Tween-80.
Setting [6] is: dose: 200.0 mg/kg/injection, schedule: Q07DX002 (ip), vehicle: saline with Tween-80.
Setting [7] is: dose: 400.0 mg/kg/injection, schedule: Q07DX002 (ip), vehicle: saline with Tween-80.

Each structure is given as a SMILES string. Values joined by “and” are separate entries in the source; they are usually repeats but may differ in a detail not shown here. Equal values may be shown once. Inconclusive results are not listed.

Drawing on PubChem BioAssay AID212 (DTP/NCI, 2004), this text covers T/C for 10 compounds.

Take `Nc1ncn(C2CC(O)C(CO)O2)c(=O)n1` (stereo not given): the T/C reads like this: (dose: 0.5 mg/kg/injection, schedule: Q07DX002 (ip), vehicle: Klucel (hydroxypropylcellulose) (HPC)) 102 % of control; (dose: 0.5 mg/kg/injection, schedule: Q07DX002 (ip), vehicle: saline) 90 % of control; under setting [1], 113 % of control; (dose: 1.0 mg/kg/injection, schedule: Q07DX002 (ip), vehicle: saline) 99 % of control; (dose: 2.0 mg/kg/injection, schedule: Q07DX002 (ip), vehicle: Klucel (hydroxypropylcellulose) (HPC)) 86 % of control; (dose: 2.0 mg/kg/injection, schedule: Q07DX002 (ip), vehicle: saline) 75 % of control. For the same compound, the T/C is 14 % of control and 34 % of control (dose: 3.0 mg/kg/injection, schedule: Q07DX002 (ip), vehicle: saline); 106 % of control under setting [2]; 43 % of control (dose: 4.0 mg/kg/injection, schedule: Q07DX002 (ip), vehicle: saline); 29 % of control and 46 % of control (dose: 6.0 mg/kg/injection, schedule: Q07DX002 (ip), vehicle: saline); 60 % of control under setting [3]; 28 % of control (dose: 8.0 mg/kg/injection, schedule: Q07DX002 (ip), vehicle: saline). Besides, the T/C is, setting by setting: (dose: 12.0 mg/kg/injection, schedule: Q07DX002 (ip), vehicle: saline) 23 % of control; (dose: 16.0 mg/kg/injection, schedule: Q07DX002 (ip), vehicle: Klucel (hydroxypropylcellulose) (HPC)) 41 % of control; (dose: 16.0 mg/kg/injection, schedule: Q07DX002 (ip), vehicle: saline) 22 % of control; (dose: 32.0 mg/kg/injection, schedule: Q07DX002 (ip), vehicle: Klucel (hydroxypropylcellulose) (HPC)) 43 % of control; (dose: 32.0 mg/kg/injection, schedule: Q07DX002 (ip), vehicle: saline) 4 % of control.
In the case of `CC(C)CC(NC(=O)CF)C(=O)O` (stereo not given), the T/C is, setting by setting: (dose: 0.62 mg/kg/injection, schedule: Q07DX002 (ip), vehicle: saline) 46 % of control; (dose: 0.63 mg/kg/injection, schedule: Q07DX002 (ip), vehicle: saline) 75 % of control; (dose: 1.25 mg/kg/injection, schedule: Q07DX002 (ip), vehicle: saline) 94 % of control and 96 % of control; (dose: 5.0 mg/kg/injection, schedule: Q07DX002 (ip), vehicle: saline) 74 % of control and 76 % of control; (dose: 10.0 mg/kg/injection, schedule: Q07DX002 (ip), vehicle: saline) 71 % of control and 92 % of control.
In the case of `COc1cc2c(cc1O)C1C(O)C(O)C=C3CCN(C2)C31` (stereo not given), the T/C was 105 % of control (dose: 4.0 mg/kg/injection, schedule: Q07DX002 (ip), vehicle: saline + alcohol); 79 % of control (dose: 8.0 mg/kg/injection, schedule: Q07DX002 (ip), vehicle: saline + alcohol); 105 % of control (dose: 16.0 mg/kg/injection, schedule: Q07DX002 (ip), vehicle: saline + alcohol); 73 % of control (dose: 32.0 mg/kg/injection, schedule: Q07DX002 (ip), vehicle: saline + alcohol).
With `CCOC(=O)c1c[nH]c2oc(/C=N/N3CC(CN4CCOCC4)OC3=O)cc2c1=O` (stereo not given), the T/C by setting is: (dose: 25.0 mg/kg/injection, schedule: Q07DX003 (ip), vehicle: saline) 116 % of control and 120 % of control; (dose: 100.0 mg/kg/injection, schedule: Q07DX003 (ip), vehicle: saline) 93 % of control and 102 % of control; (dose: 150.0 mg/kg/injection, schedule: Q07DX002 (ip), vehicle: other) 92 % of control; (dose: 200.0 mg/kg/injection, schedule: Q07DX003 (ip), vehicle: saline) 108 % of control and 106 % of control; (dose: 300.0 mg/kg/injection, schedule: Q07DX002 (ip), vehicle: other) 59 % of control; (dose: 600.0 mg/kg/injection, schedule: Q07DX002 (ip), vehicle: other) 59 % of control. Besides, under “dose: 900.0 mg/kg/injection, schedule: Q07DX002 (ip), vehicle: other”, the T/C was 34 % of control.
Take `COC1/C=C/O[C@@]2(C)Oc3c(C)c(O)c4c(O)c(cc(O)c4c3C2=O)NC(=O)/C(C)=C\C=C\[C@H](C)C(O)[C@@H](C)[C@@H](O)[C@@H](C)[C@H](OC(C)=O)[C@@H]1C` (stereo not given in full): the T/C (dose: 12.5 mg/kg/injection, schedule: Q07DX002 (ip), vehicle: saline with Tween-80) is 72 % of control; the T/C under setting [4] is 79 % of control; the T/C under setting [5] was 84 % of control; the T/C under setting [6] is 77 % of control; the T/C under setting [7] was 98 % of control.
For `NCCCNCCSP(=O)(O)O`, the T/C is 101 % of control (dose: 6.25 mg/kg/injection, schedule: Q07DX002 (ip), vehicle: saline); 103 % of control (dose: 12.5 mg/kg/injection, schedule: Q07DX002 (ip), vehicle: saline); 83 % of control (dose: 25.0 mg/kg/injection, schedule: Q07DX002 (ip), vehicle: saline with Tween-80); 81 % of control (dose: 25.0 mg/kg/injection, schedule: Q07DX002 (ip), vehicle: saline); 73 % of control under setting [4]; 109 % of control (dose: 50.0 mg/kg/injection, schedule: Q07DX002 (ip), vehicle: saline). Moreover, the T/C by setting is: under setting [5], 91 % of control; (dose: 100.0 mg/kg/injection, schedule: Q07DX002 (ip), vehicle: saline) 72 % of control; under setting [6], 82 % of control; (dose: 200.0 mg/kg/injection, schedule: Q07DX002 (ip), vehicle: saline) 76 % of control; under setting [7], 82 % of control.
For `CC[C@H]1CN2CCc3cc(OC)c(OC)cc3[C@@H]2C[C@@H]1C[C@H]1NCCc2cc(O)c(OC)cc21`, the T/C was 101 % of control (dose: 3.0 mg/kg/injection, schedule: Q07DX002 (ip), vehicle: suspension in saline); 110 % of control (dose: 6.0 mg/kg/injection, schedule: Q07DX002 (ip), vehicle: suspension in saline); 98 % of control (dose: 12.0 mg/kg/injection, schedule: Q07DX002 (ip), vehicle: suspension in saline); 89 % of control (dose: 24.0 mg/kg/injection, schedule: Q07DX002 (ip), vehicle: suspension in saline).
With `O=C1c2ccccc2C(=O)c2c(NCCNCCO)ccc(O)c21`, the T/C is 79 % of control and 95 % of control (dose: 5.0 mg/kg/injection, schedule: Q07DX002 (ip), vehicle: suspension in saline); 94 % of control and 99 % of control (dose: 10.0 mg/kg/injection, schedule: Q07DX002 (ip), vehicle: suspension in saline); 90 % of control and 96 % of control and 106 % of control (dose: 40.0 mg/kg/injection, schedule: Q07DX002 (ip), vehicle: suspension in saline); 74 % of control (dose: 320.0 mg/kg/injection, schedule: Q07DX002 (ip), vehicle: suspension in saline).
In the case of `COC1=CC(=O)N(C(=O)C2CSC(C(CO)NC(=O)c3csc(/C=N/O)n3)=N2)C1` (stereo not given), the T/C is 114 % of control (dose: 50.0 mg/kg/injection, schedule: Q07DX002 (ip), vehicle: Klucel (hydroxypropylcellulose) (HPC)); 110 % of control (dose: 100.0 mg/kg/injection, schedule: Q07DX002 (ip), vehicle: Klucel (hydroxypropylcellulose) (HPC)); 150 % of control (dose: 200.0 mg/kg/injection, schedule: Q07DX002 (ip), vehicle: Klucel (hydroxypropylcellulose) (HPC)); 88 % of control (dose: 400.0 mg/kg/injection, schedule: Q07DX002 (ip), vehicle: Klucel (hydroxypropylcellulose) (HPC)).
Turning to `CC1CC(C)CC(C)C(O)/C(C#N)=C/C=C/CC(C2CCCC2C(=O)O)OC(=O)CC(O)C(C)C1` (stereo not given), the T/C was 84 % of control (dose: 0.13 mg/kg/injection, schedule: Q07DX003 (ip), vehicle: Klucel (hydroxypropylcellulose) (HPC)); 80 % of control (dose: 0.25 mg/kg/injection, schedule: Q07DX003 (ip), vehicle: Klucel (hydroxypropylcellulose) (HPC)); 113 % of control (dose: 0.5 mg/kg/injection, schedule: Q07DX003 (ip), vehicle: Klucel (hydroxypropylcellulose) (HPC)); 92 % of control under setting [1]; 93 % of control (dose: 1.0 mg/kg/injection, schedule: Q07DX003 (ip), vehicle: Klucel (hydroxypropylcellulose) (HPC)); 69 % of control (dose: 2.0 mg/kg/injection, schedule: Q07DX003 (ip), vehicle: Klucel (hydroxypropylcellulose) (HPC)). The T/C reads like this: under setting [2], 106 % of control; (dose: 4.0 mg/kg/injection, schedule: Q07DX003 (ip), vehicle: Klucel (hydroxypropylcellulose) (HPC)) 88 % of control; under setting [3], 75 % of control.
